Earlier results in patent US20100035755A1, “METHOD OF CONTROLLING WEEDS IN A TURF GRASS BY USING SULFONYLUREA COMPOUNDS” (Moghu Research Center Ltd., priority 2008, published 2010).
Where two headings read alike, the source gives them in different places.

Tests used:
Poa annua = settings: background statement on existing herbicides; cited from earlier work
warm season turf grass = settings: cited from earlier work
cool season turf grass = settings: cited from earlier work
[1] = background statement, zoysiagrass, Burmudagrass
[2] = background statement, creeping bentgrass, Kentucky bluegrass

SMILES	controlling Poa annua (Poa annua)	safety to warm season turf grass (warm season turf grass; in vivo)	safety to cool season turf grass (cool season turf grass; in vivo)	safety to warm season turf grass (warm season turf grass; [1])	safety to cool season turf grass (cool season turf grass; [2])
COc1cc(OC)nc(NC(=O)NS(=O)(=O)Nc2ccccc2C(=O)C2CC2)n1 [R. 4, Cyclosulfamuron]	ineffective	safe	safe		
COC(=O)c1c(Cl)nn(C)c1S(=O)(=O)NC(=O)Nc1nc(OC)cc(OC)n1 [R. 3, Halosulfuron-methyl]	ineffective			safe	safe
COc1cc(OC)nc(NC(=O)NS(=O)(=O)c2ncccc2OCC(F)(F)F)n1 [R. 2, Trifloxysulfuron]				have a safety	no safety
